pIC50: −log10 of the molar value. Like-named read-outs stand apart in the source and are kept apart here.
How the values were obtained:
Assay type in all cases: cell-based, human
MV4;11 cells = assay: Cell proliferation experiment (Alamar blue, 72 h), MV4;11
Method in brief: (§1)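 Cells were passaged at least twice, harvested in log phase and plated in 96 wells. Compound in complete medium was added at 5-fold gradient concentrations, duplicates per concentration. After 72 h culture, Alamar blue fluorescence was measured and IC50 fitted.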

Daudi cells = assay: Cell proliferation experiment, Daudi; details: read-out: Inhibitory activity IC50 on Daudi
Method in brief: as §1

MDA-MB-231 cells = assay: Cell proliferation experiment, MDA-MB-231
Method in brief: as §1

PC-3 = assay: Cell proliferation experiment, PC-3
Method in brief: as §1

NCIH82 cells = assay: Cell proliferation experiment, NCI-H82; details: Homo sapiens, NCI-H82, NCI-H82 cells; read-out: Inhibitory activity IC50 on NCI-H82
Method in brief: as §1

[1] = Homo sapiens, MV4-11, MV4;11 cells, read-out: Inhibitory activity IC50 on MV4;11
[2] = Homo sapiens, Daudi, Daudi cells
[3] = Homo sapiens, MDA-MB-231, MDA-MB-231 cells, read-out: Inhibitory activity IC50 on MDA-MB-231
[4] = Homo sapiens, PC-3, PC-3 cells, read-out: Inhibitory activity IC50 on PC-3
[5] = MDA-MB-231 cells, read-out: Inhibitory activity IC50 on MDA-MB-231

Row | SMILES | pIC50 (MV4;11 cells; [1]) | pIC50 (Daudi cells; [2]) | pIC50 (MDA-MB-231 cells; [3]) | pIC50 (PC-3; [4]) | pIC50 (NCIH82 cells) | also measured
1 | CC[C@@H]1C(=O)N(C)c2cnc(Nc3ccc(C(=O)N[C@H]4CC[C@@H](NCCOCCC#Cc5cccc6c5CN(C5CCC(=O)NC5=O)C6=O)CC4)cc3OC)nc2N1C1CCCC1 (stereo partly drawn) [UB-180937] | > 8.00 | 7.00 to 8.00 | 7.00 to 8.00 | 7.00 to 8.00 | – | –
2 | CCNC(=O)C#Cc1ccc2c(c1)NC(=O)/C2=C(\Nc1ccc(CNCCOCCOCCOCCOCCC(=O)Nc2ccc3c(c2)CN(C2CCC(=O)NC2=O)C3=O)cc1)c1ccccc1 (stereo not drawn) [UB-180957] | 7.00 to 8.00 | 6.00 to 7.00 | < 6.00 | < 6.00 | 6.00 to 7.00 | –
3 | CC[C@@H]1C(=O)N(C)c2cnc(Nc3ccc(-c4cn(C5CCC(NCCOCCC#Cc6cccc7c6CN(C6CCC(=O)NC6=O)C7=O)CC5)nn4)cc3OC)nc2N1C1CCCC1 (stereo partly drawn) [UB-180961] | > 8.00 | > 8.00 | > 8.00 | > 8.00 | – | –
4 | CNC(=O)c1ccccc1Nc1nc(Nc2ccc(N3CCN(C(=O)NCCCCOCCCCNCC(=O)Nc4cccc5c4CN(C4CCC(=O)NC4=O)C5=O)CC3)cc2)ncc1Cl (stereo not drawn) [UB-181048] | > 8.00 | 7.00 to 8.00 | < 6.00 | < 6.00 | 6.00 to 7.00 | –
5 | CC[C@@H]1C(=O)N(C)c2cnc(Nc3ccc(-c4cn([C@H]5CC[C@@H](NCCOCCC#Cc6cccc7c6CN(C6CCC(=O)NC6=O)C7=O)CC5)nn4)cc3)nc2N1C1CCCC1 (stereo partly drawn) [UB-181099] | > 8.00 | – | – | 7.00 to 8.00 | – | pIC50 (Daudi cells; Daudi cells): 7.00 to 8.00; pIC50 (MDA-MB-231 cells; [5]): 7.00 to 8.00
6 | CC[C@@H]1C(=O)N(C)c2cnc(Nc3ccc(-c4cn([C@H]5CC[C@H](NCCOCCC#Cc6cccc7c6CN(C6CCC(=O)NC6=O)C7=O)CC5)nn4)cc3OC)nc2N1C1CCCC1 (stereo partly drawn) [UB-181108] | > 8.00 | 7.00 to 8.00 | 7.00 to 8.00 | 7.00 to 8.00 | – | –
7 | CC[C@@H]1C(=O)N(C)c2cnc(Nc3ccc(C(=O)N[C@H]4CC[C@H](NCCOCCC#Cc5cccc6c5CN(C5CCC(=O)NC5=O)C6=O)CC4)cc3OC)nc2N1C1CCCC1 (stereo partly drawn) [UB-181113] | – | – | – | – | – | pIC50 (MV4;11 cells; Homo sapiens, MV4-11, read-out: Inhibitory activity IC50 on MV4;11): > 8.00; pIC50 (Daudi cells; Homo sapiens, Daudi): 7.00 to 8.00; pIC50 (MDA-MB-231 cells; Homo sapiens, MDA-MB-231, read-out: Inhibitory activity IC50 on MDA-MB-231): 7.00 to 8.00; pIC50 (PC-3; Homo sapiens, PC-3, read-out: Inhibitory activity IC50 on PC-3): 7.00 to 8.00
8 | CC[C@@H]1C(=O)N(C)c2cnc(Nc3ccc(-c4cn([C@H]5CC[C@H](NCCOCCC#Cc6cccc7c6CN(C6CCC(=O)NC6=O)C7=O)CC5)nn4)cc3)nc2N1C1CCCC1 (stereo partly drawn) [UB-181118] | > 8.00 | 6.00 to 7.00 | 7.00 to 8.00 | 7.00 to 8.00 | – | –
9 | CS(=O)(=O)c1ccccc1Nc1nc(Nc2ccc(C3CCN(C(=O)N[C@H]4CC[C@H](NCCOCCC#Cc5cccc6c5CN(C5CCC(=O)NC5=O)C6=O)CC4)CC3)cc2)ncc1Cl (stereo partly drawn) [UB-181139] | > 8.00 | – | 6.00 to 7.00 | 6.00 to 7.00 | 6.00 to 7.00 | –
10 | CS(=O)(=O)c1ccccc1Nc1nc(Nc2ccc(C3CCN(C(=O)N[C@H]4CC[C@@H](NCCOCCC#Cc5ccc6c(c5)CN(C5CCC(=O)NC5=O)C6=O)CC4)CC3)cc2)ncc1Cl (stereo partly drawn) [UB-181140] | > 8.00 | – | 6.00 to 7.00 | 6.00 to 7.00 | 6.00 to 7.00 | –
11 | CC[C@@H]1C(=O)N(C)c2cnc(Nc3ccc(C(=O)NC4CCN(CCOCCN(C)CC(=O)Nc5cccc6c5CN(C5CCC(=O)NC5=O)C6=O)CC4)cc3)nc2N1C1CCCC1 (stereo partly drawn) [UB-181143] | 7.00 to 8.00 | 6.00 to 7.00 | 6.00 to 7.00 | 6.00 to 7.00 | – | –
12 | CC[C@@H]1C(=O)N(C)c2cnc(Nc3ccc(C(=O)N[C@H]4CC[C@H](NCCOCCC#Cc5cccc6c5CN(C5CCC(=O)NC5=O)C6=O)CC4)cc3)nc2N1C1CCCC1 (stereo partly drawn) [UB-181144] | > 8.00 | 7.00 to 8.00 | 7.00 to 8.00 | 7.00 to 8.00 | – | –
13 | CC[C@@H]1C(=O)N(C)c2cnc(Nc3ccc(-c4cn([C@H]5CC[C@@H](NCCOCCC#Cc6cccc7c6CN(C6CCC(=O)NC6=O)C7=O)CC5)nn4)cc3OC)nc2N1Cc1ccc(Cl)s1 (stereo partly drawn) [UB-181145] | > 8.00 | > 8.00 | > 8.00 | > 8.00 | – | –
14 | CC(=O)c1ccccc1Nc1nc(Nc2ccc(C3CCN(C(=O)N[C@H]4CC[C@H](NCCOCCC#Cc5cccc6c5CN(C5CCC(=O)NC5=O)C6=O)CC4)CC3)cc2)ncc1Cl (stereo partly drawn) [UB-181146] | > 8.00 | – | < 6.00 | < 6.00 | < 6.00 | –
15 | NC(=O)c1ccccc1Nc1nc(Nc2ccc(C3CCN(C(=O)N[C@H]4CC[C@H](NCCOCCC#Cc5cccc6c5CN(C5CCC(=O)NC5=O)C6=O)CC4)CC3)cc2)ncc1Cl (stereo partly drawn) [UB-181147] | > 8.00 | – | 6.00 to 7.00 | 6.00 to 7.00 | 6.00 to 7.00 | –
16 | CC[C@@H]1C(=O)N(C)c2cnc(Nc3ccc(-c4cn([C@H]5CC[C@@H](N(CCOCCC#Cc6cccc7c6CN(C6CCC(=O)NC6=O)C7=O)C(=O)OCc6ccc(NC(=O)[C@H](CC(N)=O)NC(=O)[C@H](C)NC(=O)[C@H](C)NC(=O)CCCCCN7C(=O)C=CC7=O)cc6)CC5)nn4)cc3OC)nc2N1C1CCCC1 (stereo partly drawn) [UB-181149] | 6.00 to 7.00 | 6.00 to 7.00 | 6.00 to 7.00 | 6.00 to 7.00 | – | –
17 | CC(=O)c1ccccc1Nc1nc(Nc2ccc(C3CCN(C(=O)N[C@H]4CC[C@H](NCCOCCC#Cc5ccc6c(c5)CN(C5CCC(=O)NC5=O)C6=O)CC4)CC3)cc2)ncc1Cl (stereo partly drawn) [UB-181151] | > 8.00 | – | < 6.00 | < 6.00 | 6.00 to 7.00 | –
18 | NC(=O)c1ccccc1Nc1nc(Nc2ccc(C3CCN(C(=O)NC4CCC(NCCOCCC#Cc5ccc6c(c5)CN(C5CCC(=O)NC5=O)C6=O)CC4)CC3)cc2)ncc1Cl (stereo not drawn) [UB-181152] | > 8.00 | – | 6.00 to 7.00 | 6.00 to 7.00 | 6.00 to 7.00 | –
19 | CC[C@@H]1C(=O)N(C)c2cnc(Nc3ccc(-c4cn([C@H]5CC[C@@H](NCCOCCC#Cc6cccc7c6CN(C6CCC(=O)NC6=O)C7=O)CC5)nn4)cc3)nc2N1C1CCCC1 (stereo partly drawn) [UB-181154] | – | – | – | – | – | pIC50 (MV4;11 cells; MV4;11 cells, read-out: Inhibitory activity IC50 on MV4;11): > 8.00; pIC50 (Daudi cells; Daudi cells): 6.00 to 7.00; pIC50 (MDA-MB-231 cells; [5]): 6.00 to 7.00; pIC50 (PC-3; PC-3 cells, read-out: Inhibitory activity IC50 on PC-3): 7.00 to 8.00
20 | CC[C@@H]1C(=O)N(C)c2cnc(Nc3ccc(C(=O)N[C@H]4CC[C@@H](NCCOCCC#Cc5cccc6c5CN([C@H]5CCC(=O)NC5=O)C6=O)CC4)cc3)nc2N1C1CCCC1 [UB-181170] | > 8.00 | 7.00 to 8.00 | 7.00 to 8.00 | 7.00 to 8.00 | – | –
21 | CC[C@@H]1C(=O)N(C)c2cnc(Nc3ccc(C(=O)NC4CCN(CCOCCN(C)CC(=O)Nc5cccc6c5CN(C5CCC(=O)NC5=O)C6=O)CC4)nc3)nc2N1C1CCCC1 (stereo partly drawn) [UB-181171] | 7.00 to 8.00 | < 6.00 | < 6.00 | < 6.00 | – | –
22 | CC[C@@H]1C(=O)N(C)c2cnc(Nc3ccc(C(=O)N[C@H]4CC[C@@H](N(C)CCOCCC#Cc5cccc6c5CN(C5CCC(=O)NC5=O)C6=O)CC4)cc3)nc2N1C1CCCC1 (stereo partly drawn) [UB-181175] | > 8.00 | 7.00 to 8.00 | 7.00 to 8.00 | 7.00 to 8.00 | – | –
23 | CC[C@@H]1C(=O)N(C)c2cnc(Nc3ccc(C(=O)N[C@H]4CC[C@H](N(C)CCOCCC#Cc5cccc6c5CN(C5CCC(=O)NC5=O)C6=O)CC4)cc3)nc2N1C1CCCC1 (stereo partly drawn) [UB-181176] | > 8.00 | 7.00 to 8.00 | 7.00 to 8.00 | 7.00 to 8.00 | – | –
24 | CC[C@@H]1C(=O)N(C)c2cnc(Nc3ccc(C(=O)N[C@H]4CC[C@@H](N(C)CCOCCC#Cc5cccc6c5CN(C5CCC(=O)NC5=O)C6=O)CC4)cc3OC)nc2N1C1CCCC1 (stereo partly drawn) [UB-181177] | > 8.00 | 7.00 to 8.00 | > 8.00 | > 8.00 | – | –
25 | CC[C@@H]1C(=O)N(C)c2cnc(Nc3ccc(C(=O)N[C@H]4CC[C@H](N(C)CCOCCC#Cc5cccc6c5CN(C5CCC(=O)NC5=O)C6=O)CC4)cc3OC)nc2N1C1CCCC1 (stereo partly drawn) [UB-181178] | > 8.00 | > 8.00 | 7.00 to 8.00 | 7.00 to 8.00 | – | –

Reference: patent publication US20230210999A1, “TARGETED PROTEASE DEGRADATION (TED) PLATFORM” (EUBULUS BIOTHERAPEUTICS INC., priority 2020, published 2023)
